Data reported in PMC10536065 (ACS Omega, 2023).
“Also recorded” adds a separate entry of the source.

Assays:
[1] = biological target: T1, Type I collagen (Bos taurus, UniProt P02453+P02465); assay: ELISA saturation binding to collagen; design: species or system bovine
[2] = Circular dichroism spectroscopy; format: physicochemical; conditions: NaCl, MgCl2, CaCl2; 10 μM peptide
[3] = biological target: T1, Type I collagen; assay: Inhibition of cCBD-LL37 binding to collagen by cCBD; design: species or system bovine; conditions: 500 nM cCBD-LL37 with 0–500 nM cCBD, 1 h room temperature; n = 4

T1 sequence (P02453 162-1217 limits assumed): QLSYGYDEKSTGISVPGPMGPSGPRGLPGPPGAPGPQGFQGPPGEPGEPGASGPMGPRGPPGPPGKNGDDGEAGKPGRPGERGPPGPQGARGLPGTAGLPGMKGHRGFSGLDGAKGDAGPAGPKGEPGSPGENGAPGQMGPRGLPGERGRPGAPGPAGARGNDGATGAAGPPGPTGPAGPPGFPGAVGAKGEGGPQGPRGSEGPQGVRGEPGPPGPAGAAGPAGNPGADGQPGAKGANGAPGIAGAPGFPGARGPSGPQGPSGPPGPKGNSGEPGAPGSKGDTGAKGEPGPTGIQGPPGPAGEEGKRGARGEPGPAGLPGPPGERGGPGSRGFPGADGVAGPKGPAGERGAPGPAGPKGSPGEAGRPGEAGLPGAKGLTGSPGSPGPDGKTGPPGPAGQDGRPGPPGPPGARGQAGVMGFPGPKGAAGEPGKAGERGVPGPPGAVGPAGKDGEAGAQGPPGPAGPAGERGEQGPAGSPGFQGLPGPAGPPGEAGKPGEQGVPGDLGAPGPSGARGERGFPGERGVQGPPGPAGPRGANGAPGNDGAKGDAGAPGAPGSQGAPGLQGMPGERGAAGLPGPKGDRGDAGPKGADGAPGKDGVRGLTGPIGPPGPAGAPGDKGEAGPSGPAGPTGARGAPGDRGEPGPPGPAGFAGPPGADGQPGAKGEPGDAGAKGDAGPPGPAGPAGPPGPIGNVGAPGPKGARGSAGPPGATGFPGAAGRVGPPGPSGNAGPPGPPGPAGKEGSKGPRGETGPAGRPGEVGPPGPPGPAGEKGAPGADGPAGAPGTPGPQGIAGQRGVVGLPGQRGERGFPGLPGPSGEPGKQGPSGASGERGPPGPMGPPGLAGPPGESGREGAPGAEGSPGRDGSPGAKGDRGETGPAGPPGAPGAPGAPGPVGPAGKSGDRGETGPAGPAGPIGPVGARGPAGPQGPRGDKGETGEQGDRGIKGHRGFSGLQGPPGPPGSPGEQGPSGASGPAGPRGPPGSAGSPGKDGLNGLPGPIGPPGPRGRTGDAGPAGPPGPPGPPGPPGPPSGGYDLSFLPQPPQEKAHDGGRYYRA
T1 sequence (P02465 80-1117 limits assumed): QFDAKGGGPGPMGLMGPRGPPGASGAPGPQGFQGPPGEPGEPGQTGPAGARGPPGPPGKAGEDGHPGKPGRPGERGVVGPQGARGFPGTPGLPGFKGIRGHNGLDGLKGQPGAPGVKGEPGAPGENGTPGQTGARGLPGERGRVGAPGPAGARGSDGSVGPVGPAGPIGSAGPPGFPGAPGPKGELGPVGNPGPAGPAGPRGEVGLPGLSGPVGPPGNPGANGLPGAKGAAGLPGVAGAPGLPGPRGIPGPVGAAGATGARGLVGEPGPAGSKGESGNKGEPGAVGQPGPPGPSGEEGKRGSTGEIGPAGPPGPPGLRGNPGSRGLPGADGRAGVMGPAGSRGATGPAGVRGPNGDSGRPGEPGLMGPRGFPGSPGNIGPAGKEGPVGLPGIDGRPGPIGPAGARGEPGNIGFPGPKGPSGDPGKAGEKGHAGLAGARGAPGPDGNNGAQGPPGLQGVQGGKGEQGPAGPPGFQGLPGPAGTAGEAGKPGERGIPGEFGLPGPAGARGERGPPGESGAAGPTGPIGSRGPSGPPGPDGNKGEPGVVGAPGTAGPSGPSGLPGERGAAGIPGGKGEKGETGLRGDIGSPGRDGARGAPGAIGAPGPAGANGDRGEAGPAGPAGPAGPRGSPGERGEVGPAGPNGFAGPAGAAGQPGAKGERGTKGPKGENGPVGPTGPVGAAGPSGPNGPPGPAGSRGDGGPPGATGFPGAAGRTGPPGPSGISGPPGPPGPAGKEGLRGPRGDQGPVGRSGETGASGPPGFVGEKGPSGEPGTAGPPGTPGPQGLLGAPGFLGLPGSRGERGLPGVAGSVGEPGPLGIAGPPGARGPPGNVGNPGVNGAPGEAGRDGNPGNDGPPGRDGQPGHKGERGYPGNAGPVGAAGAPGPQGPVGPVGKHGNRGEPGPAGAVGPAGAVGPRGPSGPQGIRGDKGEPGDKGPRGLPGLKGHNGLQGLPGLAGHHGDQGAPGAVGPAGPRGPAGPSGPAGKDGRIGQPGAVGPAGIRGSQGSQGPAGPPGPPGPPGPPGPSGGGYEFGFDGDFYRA

Row | Compound | Kd [1] [nM] | structural stability at varying ionic strengths compared with LL37 [2] | inhibition of cCBD-LL37 binding to collagen by excess cCBD [3]
1 | CC[C@H](C)[C@H](NC(=O)[C@H](CCCCN)NC(=O)[C@H](CCC(=O)O)NC(=O)[C@H](CCCCN)NC(=O)[C@H](CO)NC(=O)[C@H](CCCCN)NC(=O)[C@H](CCCNC(=N)N)NC(=O)[C@H](Cc1ccccc1)NC(=O)[C@H](Cc1ccccc1)NC(=O)[C@H](CC(=O)O)NC(=O)CNC(=O)[C@H](CC(C)C)NC(=O)[C@@H](N)CC(C)C)C(=O)NCC(=O)N[C@@H](CCCCN)C(=O)N[C@@H](CCC(=O)O)C(=O)N[C@@H](Cc1ccccc1)C(=O)N[C@@H](CCCCN)C(=O)N[C@@H](CCCNC(=N)N)C(=O)N[C@H](C(=O)N[C@H](C(=O)N[C@@H](CCC(N)=O)C(=O)N[C@@H](CCCNC(=N)N)C(=O)N[C@H](C(=O)N[C@@H](CCCCN)C(=O)N[C@@H](CC(=O)O)C(=O)N[C@@H](Cc1ccccc1)C(=O)N[C@@H](CC(C)C)C(=O)N[C@@H](CCCNC(=N)N)C(=O)N[C@@H](CC(N)=O)C(=O)N[C@@H](CC(C)C)C(=O)N[C@H](C(=O)N1CCC[C@H]1C(=O)N[C@@H](CCCNC(=N)N)C(=O)N[C@H](C(=O)N[C@@H](CCC(=O)O)C(=O)N[C@@H](CO)C(=O)O)[C@@H](C)O)C(C)C)[C@@H](C)CC)C(C)C)[C@@H](C)CC [LL37, reference compound] | 80 |  | 
2 | CC[C@H](C)[C@H](NC(=O)[C@H](CCCCN)NC(=O)[C@H](CCC(=O)O)NC(=O)[C@H](CCCCN)NC(=O)[C@H](CO)NC(=O)[C@H](CCCCN)NC(=O)[C@H](CCCNC(=N)N)NC(=O)[C@H](Cc1ccccc1)NC(=O)[C@H](Cc1ccccc1)NC(=O)[C@H](CC(=O)O)NC(=O)CNC(=O)[C@H](CC(C)C)NC(=O)[C@@H](N)CC(C)C)C(=O)NCC(=O)N[C@@H](CCCCN)C(=O)N[C@@H](CCC(=O)O)C(=O)N[C@@H](Cc1ccccc1)C(=O)N[C@@H](CCCCN)C(=O)N[C@@H](CCCNC(=N)N)C(=O)N[C@H](C(=O)N[C@H](C(=O)N[C@@H](CCC(N)=O)C(=O)N[C@@H](CCCNC(=N)N)C(=O)N[C@H](C(=O)N[C@@H](CCCCN)C(=O)N[C@@H](CC(=O)O)C(=O)N[C@@H](Cc1ccccc1)C(=O)N[C@@H](CC(C)C)C(=O)N[C@@H](CCCNC(=N)N)C(=O)N[C@@H](CC(N)=O)C(=O)N[C@@H](CC(C)C)C(=O)N[C@H](C(=O)N1CCC[C@H]1C(=O)N[C@@H](CCCNC(=N)N)C(=O)N[C@H](C(=O)N[C@@H](CCC(=O)O)C(=O)N[C@@H](CO)C(=O)N[C@@H](CC(=O)O)C(=O)N[C@@H](Cc1ccc(O)cc1)C(=O)N[C@@H](CCCCN)C(=O)N[C@@H](CC(=O)O)C(=O)N[C@@H](CC(=O)O)C(=O)N[C@@H](CC(=O)O)C(=O)N[C@@H](CC(=O)O)C(=O)N[C@@H](CCCCN)C(=O)N[C@H](C(=O)N[C@@H](CCCCN)C(=O)N[C@@H](CCCCN)C(=O)N[C@H](C(=O)N[C@@H](CC(C)C)C(=O)N[C@@H](CCCNC(=N)N)C(=O)N[C@H](C(=O)O)[C@@H](C)O)[C@@H](C)O)[C@@H](C)O)[C@@H](C)O)C(C)C)[C@@H](C)CC)C(C)C)[C@@H](C)CC [cCBD-LL37] | 49 | stronger structural stability at varying ionic strengths when compared with LL37 | 
3 | DYKDDDDKTKKTLRT [cCBD] |  |  | significantly (*p < 0.05) inhibited cCBD-LL37 binding to collagen; also recorded: inhibited cCBD-LL37 binding to collagen but did not completely abrogate the binding
